Source: US9469615B2, “Quinoxalines and AZA-quinoxalines as CRTH2 receptor modulators” (Merck Sharp & Dohme Corp., priority 2010, dated 2016)

Target: T1, hCRTH2 (Homo sapiens, UniProt Q9Y5Y4)
T1 construct: expressed in transfected cells; host or cells: HEK (human embryonic kidney) cells expressing hCRTH2; membrane preparation
T1 sequence (Q9Y5Y4 1-395): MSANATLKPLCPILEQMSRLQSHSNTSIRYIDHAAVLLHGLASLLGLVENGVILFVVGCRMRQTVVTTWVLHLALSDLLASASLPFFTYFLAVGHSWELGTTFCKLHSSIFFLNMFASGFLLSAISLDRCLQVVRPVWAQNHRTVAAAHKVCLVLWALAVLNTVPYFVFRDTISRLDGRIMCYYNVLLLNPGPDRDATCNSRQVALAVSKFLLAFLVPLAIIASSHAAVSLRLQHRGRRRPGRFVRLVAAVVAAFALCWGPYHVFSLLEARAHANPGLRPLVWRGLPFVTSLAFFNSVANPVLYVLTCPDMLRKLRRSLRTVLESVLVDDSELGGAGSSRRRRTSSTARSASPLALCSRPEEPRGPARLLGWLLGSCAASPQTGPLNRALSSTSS
Test: Radioligand binding assay ([3H]PGD2 competition, HEK-hCRTH2 membranes)
Details: [3H]PGD2 binding
Method in brief: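 Using membranes of an HEK line stably carrying hCRTH2, ligands were tested against [3H]PGD2 (3.0 nM) in pH 7.4 Tris buffer containing 2 mM MnCl2 and 1 mM EDTA. After one hour at room temperature, filters were washed cold and counted.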

SMILES	Ki (rated A-E (Table A))	Ki (values in text)
COc1ccc([C@@H](C)NC(=O)c2ccc3nc(-c4ccc(Cl)cc4)c(CCC(C)CC(=O)O)nc3c2)cc1 (stereo partly drawn) [17o, 3-(4-chlorophenyl)-7-[[[1(R)-(4-methoxyphenyl)ethyl]amino]carbonyl]-beta-methyl-2-quinoxaline pentanoic acid]	0.1 to 2 nM	–
CC(CCCc1nc2cc(C(=O)NCc3cccc(Cl)c3)ccc2nc1-c1ccc(C(F)(F)F)cc1)C(=O)O (stereo not drawn) [18D, 7-[[[(3-chlorophenyl)methyl]amino]carbonyl]-alpha-nethyl-3-[4-(trifluoromethyl)phenyl]-2-quinoxalinepentanoic acid]	2.1 to 20 nM	–
CC(CCCc1nc2cc(C(=O)N3CC[C@@H](c4ccccc4)C3)ccc2nc1-c1ccc(C(F)(F)F)cc1)C(=O)O (stereo partly drawn) [18E, alpha-methyl-7-[(3(S)-phenyl-1-pyrrolidinyl)carbonyl]-3-[4-(trifluoromethyl)phenyl]-2-quinoxalinepentanoic acid]	0.1 to 2 nM	–
CC(CCCc1nc2cc(C(=O)N3CC[C@H](c4ccccc4)C3)ccc2nc1-c1ccc(C(F)(F)F)cc1)C(=O)O (stereo partly drawn) [18F, alpha-methyl-7-[(3(R)-phenyl-1-pyrrolidinyl)carbonyl]-3-[4-(trifluoromethyl)phenyl]-2-quinoxalinepentanoic acid]	2.1 to 20 nM	–
CC(CCCc1nc2cc(C(=O)NC3Cc4ccccc4C3)ccc2nc1-c1ccc(C(F)(F)F)cc1)C(=O)O (stereo not drawn) [18G, 7-[[(2,3-dihydro-1H-inden-2-yl)amino]carbonyl]-alpha-methyl-3-[4-(trifluoromethyl)phenyl]-2-quinoxalinepentanoic acid]	0.1 to 2 nM	–
CC(CCCc1nc2cc(C(=O)N[C@@H](c3ccccc3)C(F)(F)F)ccc2nc1-c1ccc(C(F)(F)F)cc1)C(=O)O (stereo partly drawn) [18H, alpha-methyl-3-[4-(trifluoromethyl)phenyl]-7-[[(2,2,2-trifluoro-1(S)-phenylethyl)amino]carbonyl]-2-quinoxalinepentanoic acid]	2.1 to 20 nM	–
N#Cc1ccc(CNC(=O)c2ccc3nc(-c4ccc(Cl)cc4)c(CCc4cccc(CC(=O)O)c4)nc3c2)cc1 [19F, 3-[2-[3-(4-chlorophenyl)-7-[[[(4-cyanophenyl)methyl]amino]carbonyl]-2-quinoxalinyl]ethyl] benzeneacetic acid]	2.1 to 20 nM	–
C[C@@H](NC(=O)c1ccc2nc(-c3ccc(Cl)cc3)c(CCc3cccc(CC(=O)O)c3)nc2c1)c1ccc(F)cc1 [19G, 3-[2-[3-(4-chlorophenyl)-7-[[[1(R)-(4-fluorophenyl)ethyl]amino]carbonyl]-2-quinaxalinyl]ethyl] benzeneacetic acid]	2.1 to 20 nM	–
C[C@H](NC(=O)c1ccc2nc(-c3ccc(Cl)cc3)c(CCc3cccc(CC(=O)O)c3)nc2c1)c1ccc(F)cc1 [19H, 3-[2-[3-(4-chlorophenyl)-7-[[[1(S)-(4-fluorophenyl)ethyl]amino]carbonyl]-2-quinoxalinyl]ethyl] benzeneacetic acid]	2.1 to 20 nM	–
O=C(O)Cc1cccc(CCc2nc3cc(C(=O)N[C@@H](c4ccccc4)C(F)(F)F)ccc3nc2-c2ccc(Cl)cc2)c1 [19J, 3-[2-[3-(4-chlorophenyl)-7-[[(2,2,2-trifluoro-1(S)-phenylethyl)amino]carbonyl]-2-quinoxalinyl]ethyl]benzeneacetic acid]	20.1 to 200 nM	–
O=C(O)Cc1cccc(CCc2nc3cc(C(=O)N4CC(c5ccccc5)C4)ccc3nc2-c2ccc(Cl)cc2)c1 [19K, 3-[2-[3-(4-chlorophenyl)-7-[(3-phenyl-1-azetidinyl)carbonyl]-2-quinoxalinyl]ethyl] benzeneacetic acid]	2.1 to 20 nM	–
O=C(O)Cc1cccc(CCc2nc3cc(C(=O)NCc4cccc(Cl)c4)ccc3nc2-c2ccc(Cl)cc2)c1 [19i, 3-[2-[3-(4-chlorophenyl)-7-[[[(3-chlorophenyl)methyl]amino]carbonyl]-2-quinoxalinyl]ethyl] benzeneacetic acid]	2.1 to 20 nM	–
C[C@@H](c1ccccc1)N(C)C(=O)c1ccc2nc(-c3ccc(F)cc3)c(CCCCC(=O)O)nc2c1 [21C, -(4-fluorophenyl)-7-[[methyl(1(S)-phenylethyl)amino]carbonyl]-2-quinoxalinepentanoic acid]	2.1 to 20 nM	–
O=C(NCc1cccc(Cl)c1)c1ccc2nc(-c3ccccc3)c(CCCCc3nnn[nH]3)nc2c1 [22D, N-[(3-chlorophenyl)methyl]-2-phenyl-3-[4-(1H-tetrazol-5-yl)butyl]-6-quinoxalinecarboxamide]	20.1 to 200 nM	–
O=C(O)CCCCc1nc2cc(C(=O)N3CC[C@@H](c4ccccc4)C3)c(F)cc2nc1-c1ccc(F)cc1 [24H, 6-fluoro-3-(4-fluorophenyl)-7-[(3(S)-phenyl-1-pyrrolidinyl)carbonyl]-2-quinoxalinepentanoic acid]	2.1 to 20 nM	–
O=C(O)CCCCc1nc2cc(C(=O)N3CC[C@@H](c4ccccc4)C3)c(F)cc2nc1-c1ccccc1 [24i, 6-fluoro-3-phenyl-7-[(3(S)-phenyl-1-pyrrolidinyl)carbonyl]-2-quinoxalinepentanoic acid]	2.1 to 20 nM	–

The next lines start with the values.

Ki (rated A-E (Table A))	Ki (values in text)	SMILES
0.1 to 2 nM	–	O=C(O)CCCCc1nc2cc(C(=O)N3CCC(c4ccccc4)CC3)ccc2nc1-c1ccc(C(F)(F)F)cc1Cl [26AA, 3-[2-chloro-4-(trifluoromethyl)phenyl]-7-[(4-phenyl-1-piperidinyl)carbonyl]-2-quinoxalinepentanoic acid]
0.1 to 2 nM	–	O=C(O)CCCCc1nc2cc(C(=O)N3CCC(c4ccccc4)CC3)ccc2nc1-c1ccc(Br)cc1 [26AB, 3-(4-bromophenyl)-7-[(4-phenyl-1-piperidinyl)carbonyl]-2-quinoxalinepentanoic acid]
2.1 to 20 nM	–	O=C(O)CCCCc1nc2cc(C(=O)N3CCC(c4ccccc4)C3)ccc2nc1-c1cccc(F)c1 (stereo not shown) [26E, 3-(3-fluorophenyl)-7-[(3-phenyl-1-pyrrolidinyl)carbonyl]-2-quinoxalinepentanoic acid]
2.1 to 20 nM	–	O=C(O)CCCCc1nc2cc(C(=O)N3CCC(c4ccccc4)C3)ccc2nc1-c1cccc(Cl)c1 (stereo not shown) [26F, 3-(3-chlorophenyl)-7-[(3-phenyl-1-pyrrolidinyl)carbonyl]-2-quinoxalinepentanoic acid]
2.1 to 20 nM	–	O=C(O)CCCCc1nc2cc(C(=O)N3CCC(c4ccccc4)C3)ccc2nc1-c1cc(Cl)cc(Cl)c1 (stereo not shown) [26G, 3-(3,5-dichlorophenyl)-7-[(3-phenyl-1-pyrrolidinyl)carbonyl]-2-quinoxalinepentanoic acid]
2.1 to 20 nM	–	O=C(O)CCCCc1nc2cc(C(=O)N3CCC(c4ccccc4)C3)ccc2nc1-c1ccc(F)cc1F (stereo not shown) [26H, 3-(2,4-difluorophenyl)-7-[(3-phenyl-1-pyrrolidinyl)carbonyl]-2-quinoxalinepentanoic acid]
0.1 to 2 nM	–	O=C(O)CCCCc1nc2cc(C(=O)N3CCC(c4ccccc4)CC3)ccc2nc1-c1cccc(Cl)c1 [26J, 3-(3-chlorophenyl)-7-[(4-phenyl-1-piperidinyl)carbonyl]-2-quinoxalinepentanoic acid]
2.1 to 20 nM	–	O=C(O)CCCCc1nc2cc(C(=O)N3CCC(c4ccccc4)CC3)ccc2nc1-c1ccc(C(F)(F)F)nc1 [26K, 7-[(4-phenyl-1-piperidinyl)carbonyl]-3-[6-(trifluoromethyl)-3-pyridinyl]-2-quinoxalinepentanoic acid]
2.1 to 20 nM	–	O=C(O)CCCCc1nc2cc(C(=O)N3CCC(c4ccccc4)CC3)ccc2nc1-c1ccccc1Cl [26L, 3-(2-chlorophenyl)-7-[(4-phenyl-1-piperidinyl)carbonyl]-2-quinoxalinepentanoic acid]
2.1 to 20 nM	–	O=C(O)CCCCc1nc2cc(C(=O)N3CCC(c4ccccc4)CC3)ccc2nc1-c1cccnc1 [26M, 7-[(4-phenyl-1-piperidinyl)carbonyl]-3-(3-pyridinyl)-2-quinoxalinepentanoic acid]
0.1 to 2 nM	–	O=C(O)CCCCc1nc2cc(C(=O)N3CCC(c4ccccc4)CC3)ccc2nc1-c1ccc(OC(F)(F)F)cc1 [26N, 7-[(4-phenyl-1-piperidinyl)carbonyl]-3-[4-(trifluoromethoxy)phenyl]-2-quinoxalinepentanoic acid]
2.1 to 20 nM	–	N#Cc1ccc(-c2nc3ccc(C(=O)N4CCC(c5ccccc5)CC4)cc3nc2CCCCC(=O)O)cc1 [26P, 3-(4-cyanophenyl)-7-[(4-phenyl-1-piperidinyl)carbonyl]-2-quinoxalinepentanoic acid]
20.1 to 200 nM	96.7 nM	O=C(O)CCCCc1nc2cc(C(=O)N3CCC(c4ccccc4)CC3)ccc2nc1-c1cncnc1 [26Q, 7-[(4-phenyl-1-piperidinyl)carbonyl]-3-(5-pyrimidinyl)-2-quinoxalinepentanoic acid]
20.1 to 200 nM	–	O=C(O)CCCCc1nc2cc(C(=O)N3CCC(c4ccccc4)CC3)ccc2nc1-c1cncc(Cl)c1 [26R, 3-(5-chloro-3-pyridinyl)-7-[(4-phenyl-1-piperidinyl)carbonyl]-2-quinoxalinepentanoic acid]
0.1 to 2 nM	–	O=C(O)CCCCc1nc2cc(C(=O)N3CCC(c4ccccc4)CC3)ccc2nc1-c1ccsc1 [26S, 7-[(4-phenyl-1-piperidinyl)carbonyl]-3-(3-thienyl)-2-quinoxalinepentanoic acid]
2.1 to 20 nM	–	Cn1cc(-c2nc3ccc(C(=O)N4CCC(c5ccccc5)CC4)cc3nc2CCCCC(=O)O)cn1 [26T, 3-(1-methyl-1H-pyrazol-4-yl)-7-[(4-phenyl-1-piperidinyl)carbonyl]-2-quinoxalinepentanoic acid]
2.1 to 20 nM	–	CC(=O)c1ccccc1-c1nc2ccc(C(=O)N3CCC(c4ccccc4)CC3)cc2nc1CCCCC(=O)O [26U, 3-(2-acetylphenyl)-7-[(4-phenyl-1-piperidinyl)carbonyl]-2-quinoxalinepentanoic acid]
